# Results: patent US9957209B2, “Use of quinone methides as antipolymerants for vinylic monomers” (Ecolab USA Inc., priority 2015, dated 2018)
# Test: Static antipolymerant screening: polystyrene formed in heated, inhibitor-free styrene (ASTM D2121 methanol precipitation, absorbance at 420 nm)
# Conditions: 0.33 mmolal antipolymerant in styrene, 122° C., anaerobic
# Description: The antipolymerant performance of the isolated cinnamyl quinone methide, 2,6-di-tert-butyl-4-(3-phenylallylidene)cyclohexa-2,5-dienone (7-Cinn-QM), was determined using the static method whereby a 0.31 mM (0.33 mmolal) solution of the retarder was prepared in inhibitor-free styrene. To start with, 4-tert-butylcatechol (TBC) was removed by eluting styrene through alumina. To prepare a 0.31 mM solution of 7-Cinn-QM, 0.0264 g were dissolved in freshly de-inhibited styrene to give a solution of 250 grams. Into twenty-four Ace Glass #15 threaded pressure tubes equipped with PTFE screw caps and fluoroelastomer (FETFE) O-rings, 9 mL of the solution were charged into each tube. To purge as much oxygen out of the solutions as possible, each solution was sparged with nitrogen for 2 minutes. Immediately after sparging each solution, the tube was sealed and the solution kept under a nitrogen gas overhead. […] After 30 minutes, and every 15 minutes thereafter, four tubes were retrieved from the block and the polymerization reaction quenched by cooling in an ice bath. The cooled polymer solutions were immediately diluted with toluene.
# To measure the amount of polymer formed, methanol was used to precipitate the polymer in accordance with the ASTM D2121 method. The absorbance of the polymer-methanol admixtures were measured at 420 nm. Using a calibration curve, the polymer concentrations in each of the tubes was measured and the four data points for each time were averaged.
# For comparative purpose, 0.0243 g of 7-Ph-QM were dissolved in 350 g of inhibitor-free styrene after which the antipolymerant performance was tested according to the procedure in Example 3.
# Similarly, a styrene solution comprising 0.155 mmolal of 7-Ph-QM and 0.155 mmolal of 7-Cinn-QM was used to screen the performance of the combination in accordance with the procedure in Example 3.
Molecule,Polystyrene (%) (Time 30),Polystyrene (%) (Time 45),Polystyrene (%) (Time 60),Polystyrene (%) (Time 75),Polystyrene (%) (Time 90),Polystyrene (%) (Time 105),Polystyrene (%) (Time 120),Polystyrene (%) (Time 135)
7-Phenyl Quinone Methide [7-Ph-QM],0.13%,0.49%,0.89%,1.08%,1.37%,1.56%,2.4%,3.4%
"CC(C)(C)C1=CC(=CC=Cc2ccccc2)C=C(C(C)(C)C)C1=O [7-Cinn-QM, 2,6-di-tert-butyl-4-(3-phenylallylidene)cyclohexa-2,5-dienone]",0.05%,0.20%,0.41%,0.88%,1.54%,3.39%,5.13%,7.07%
